Structures are written as SMILES. Bounds are passed on as bounds.

The target of the test is NaV1.8 (Homo sapiens, UniProt Q9Y5Y9). The test is described as follows: Activity against NaV 1.8 channel (Table 3), optical membrane potential / electrophysiology assays. It counts as cell-based. The protocol:
Compounds of the invention are useful as antagonists of voltage-gated sodium ion channels. Antagonist properties of test compounds were assessed as follows. Cells expressing the NaV of interest were placed into microtiter plates. After an incubation period, the cells were stained with fluorescent dyes sensitive to the transmembrane potential. The test compounds were added to the microtiter plate. The cells were stimulated with either a chemical or electrical means ti evoke a NaV dependent membrane potential change from unblocked channels, which was detected and measured with trans-membrane potential-sensitive dyes. Antagonists were detected as a decreased membrane potential response to the stimulus. The optical membrane potential assay utilized voltage-sensitive FRET sensors described by Gonzalez and Tsien (See, Gonzalez, J. E. and R. Y. Tsien (1995) “Voltage sensing by fluorescence resonance energy transfer in single cells” Biophys J 69(4): 1272-80, and Gonzalez, J. E. and R. Y. Tsien (1997) “Improved indicators of cell membrane potential that use fluorescence resonance energy transfer” Chem Biol 4(4): 269-77) in combination with instrumentation for measuring fluorescence changes such as the Voltage/Ion Probe Reader (VIPR®) (See, Gonzalez, J. E., K. Oades, et al. (1999) “Cell-based assays and instrumentation for screening ion-channel targets” Drug Discov Today 4(9): 431-439).
The following is an example of how NaV1.3 inhibition activity is measured using the optical membrane potential method #2. Other subtypes are performed in an analogous mode in a cell line expressing the NaV of interest.
HEK293 cells stably expressing NaV1.3 are plated into 96-well microtiter plates. After an appropriate incubation period, the cells are stained with the voltage sensitive dyes CC2-DMPE/DiSBAC2(3) as follows.
2X CC2-DMPE=20 μM CC2-DMPE: 10 mM CC2-DMPE is vortexed with an equivalent volume of 10% pluronic, followed by vortexing in required amount of HBSS containing 10 mM HEPES. Each cell plate will require 5 mL of 2X CC2-DMPE. 50 μL of 2X CC2-DMPE is to wells containing washed cells, resulting in a 10 μM final staining concentration. The cells are stained for 30 minutes in the dark at RT.
2X DISBAC2(3) with ABSC1=6 μM DISBAC2(3) and 1 mM ABSC1: The required amount of 10 mM DISBAC2(3) is added to a 50 ml conical tube and mixed with 1 μL 10% pluronic for each mL of solution to be made and vortexed together. Then HBSS/HEPES is added to make up 2X solution. Finally, the ABSC1 is added.
The 2X DiSBAC2(3) solution can be used to solvate compound plates. Note that compound plates are made at 2X drug concentration. Wash stained plate again, leaving residual volume of 50 μL. Add 50 uL/well of the 2X DiSBAC2(3) w/ABSC1. Stain for 30 minutes in the dark at RT.
The electrical stimulation instrument and methods of use are described in ION Channel Assay Methods PCT/US01/21652, herein incorporated by reference. The instrument comprises a microtiter plate handler, an optical system for exciting the coumarin dye while simultaneously recording the coumarin and oxonol emissions, a waveform generator, a current- or voltage-controlled amplifier, and a device for inserting electrodes in well. Under integrated computer control, this instrument passes user-programmed electrical stimulus protocols to cells within the wells of the microtiter plate.
Assay Protocol • 1. Insert or use electrodes into each well to be assayed. • 2. Use the current-controlled amplifier to deliver stimulation wave pulses for 3 s. Two seconds of pre-stimulus recording are performed to obtain the un-stimulated intensities. Five seconds of post-stimulation recording are performed to examine the relaxation to the resting state.
Data are analyzed and reported as normalized ratios of background-subtracted emission intensities measured in the 460 nm and 580 nm channels. Background intensities are then subtracted from each assay channel. […]
Take `CC(C)(C)c1ccc(C(=O)Nc2cccc(S(N)(=O)=O)c2)c(Oc2cccc(F)c2)c1` [Compound 132]: the IC50 is less than 2 µM.
Consider `CC(C)COC(=O)N1CCN(c2ccccc2C(=O)Nc2cccc(S(N)(=O)=O)c2)CC1` [Compound 45], for which the IC50 was more than 10 µM.
Consider `NS(=O)(=O)c1cccc(NC(=O)c2ccccc2-n2cccc2)c1` [Compound 4], for which the IC50 was more than 10 µM.
Consider `NS(=O)(=O)c1cccc(NC(=O)c2ccccc2NCc2ccccc2)c1` [Compound 68], for which the IC50 was more than 10 µM.
On to `Cc1cc(F)ccc1Oc1cc(C(C)(C)C)ccc1C(=O)Nc1cccc(S(N)(=O)=O)c1` [Compound 108], for which the IC50 is less than 2 µM.
For `Cc1cc(C)c(S(N)(=O)=O)cc1NC(=O)c1ccc(C(C)(C)C)cc1` [Compound 25], the IC50 was more than 10 µM.
The result for `CC(=O)c1cccc(Oc2cc(C(C)(C)C)ccc2C(=O)Nc2cccc(S(N)(=O)=O)c2)c1` [Compound 135] reads less than 2 µM; that for `CC(C)(C)c1ccc(C(=O)Nc2cccc(S(N)(=O)=O)c2)c(Oc2ccc(C#N)cc2)c1` [Compound 130], less than 2 µM.
In the case of `Cc1c(Cl)cc(S(N)(=O)=O)cc1NC(=O)c1ccc(C(C)(C)C)cc1` [Compound 46], the IC50 is more than 10 µM.
As for `Cc1cccc(Oc2cc(C(C)(C)C)ccc2C(=O)Nc2cccc(S(N)(=O)=O)c2)c1` [Compound 119], the IC50 was less than 2 µM.
For `CCOc1ccc(C(=O)Nc2cccc(S(N)(=O)=O)c2)cc1` [Compound 64] the value was more than 10 µM; for `COc1cc(C)c(S(N)(=O)=O)cc1NC(=O)c1ccc(C(C)(C)C)cc1` [Compound 43], more than 10 µM; for `COc1cccc(Oc2ccccc2C(=O)Nc2cccc(S(N)(=O)=O)c2)c1` [Compound 84], 2 to 10 µM.
In the case of `CC(C)(C)c1ccc(C(=O)Nc2cccc(S(N)(=O)=O)c2)c(Oc2ccc(F)cc2)c1` [Compound 78, 2-(4-Fluorophenoxy)-4-tert-butyl-N-(3-(aminosulfonyl)phenyl)benzamide], the IC50 was less than 2 µM.
For `NS(=O)(=O)c1cccc(NC(=O)c2ccc(Cl)cc2Cl)c1` [Compound 120] the value was more than 10 µM; for `CC(C)(C)c1ccc(C(=O)Nc2cccc(S(N)(=O)=O)c2)c(Oc2ccc(F)cc2F)c1` [Compound 107], less than 2 µM; for `CC(C)(C)c1ccc(C(=O)Nc2cccc(S(N)(=O)=O)c2)c(Oc2ccccc2C(F)(F)F)c1` [Compound 104], less than 2 µM.
For `CNS(=O)(=O)c1cccc(NC(=O)c2ccc(C(C)(C)C)cc2)c1` [Compound 14], the IC50 fell in the range of 2 to 10 µM.
As to `CCCOc1ccccc1C(=O)Nc1cccc(S(N)(=O)=O)c1` [Compound 131], the IC50 is more than 10 µM.
For `NS(=O)(=O)c1cccc(NC(=O)c2ccccc2Nc2cccc(Oc3ccccc3)c2)c1` [Compound 17] the value was more than 10 µM; for `CCc1cc(C(=O)Nc2cccc(S(N)(=O)=O)c2)ccc1-c1ccccc1` [Compound 65], more than 10 µM.
Regarding `Cc1ccc(Oc2cc(C(C)(C)C)ccc2C(=O)Nc2cccc(S(N)(=O)=O)c2)cn1` [Compound 144], the IC50 was less than 2 µM.
For `COc1ccc(C(=O)Nc2cccc(S(N)(=O)=O)c2)c(OC)c1` [Compound 123] the value was more than 10 µM; for `CC(C)(C)c1ccc(C(=O)Nc2cccc(S(N)(=O)=O)c2)c(Oc2cccc(C(F)(F)F)c2)c1` [Compound 134], less than 2 µM.
With `NS(=O)(=O)c1cccc(NC(=O)c2cccc(C(=O)c3ccccc3)c2)c1` [Compound 18], the IC50 is more than 10 µM.
As for `NS(=O)(=O)c1cccc(NC(=O)c2ccc(C(F)(F)F)cc2C(F)(F)F)c1` [Compound 81], the IC50 was more than 10 µM.
As to `COc1cc(C(C)(C)C)ccc1C(=O)Nc1cccc(S(N)(=O)=O)c1` [Compound 106], the IC50 is less than 2 µM.
For `CC(C)COC(=O)NC1CCN(c2ccccc2C(=O)Nc2cccc(S(N)(=O)=O)c2)CC1` [Compound 76] the value was more than 10 µM; for `NS(=O)(=O)c1cccc(NC(=O)c2ccccc2NC(=O)c2cccnc2)c1` [Compound 20], more than 10 µM.
For `CC(C)(C)c1ccc(C(=O)Nc2cccc(S(N)(=O)=O)c2)c(Oc2ccccc2N2CCCCC2)c1` [Compound 97] the value was less than 2 µM.
Take `Cc1ccc(-c2ccccc2C(=O)Nc2cccc(S(N)(=O)=O)c2)cc1` [Compound 75]: the IC50 was in the range of 2 to 10 µM.
`Cc1ccc(Oc2ccccc2C(=O)Nc2cccc(S(N)(=O)=O)c2)cc1` [Compound 59]: the IC50 was 2 to 10 µM.
With `CCCCc1ccc(C(=O)Nc2cccc(S(N)(=O)=O)c2)cc1` [Compound 96], the IC50 is more than 10 µM.
For `NS(=O)(=O)c1cccc(NC(=O)c2cccc(OC(F)(F)F)c2)c1` [Compound 74] the value was more than 10 µM.
For the molecule `Cc1cc(Oc2cc(C(C)(C)C)ccc2C(=O)Nc2cccc(S(N)(=O)=O)c2)cc(C)n1` [Compound 124], the IC50 was more than 10 µM.
As for `NS(=O)(=O)c1cccc(NC(=O)c2cccc(Oc3ccccc3)c2)c1` [Compound 15], the IC50 was 2 to 10 µM.
On to `NS(=O)(=O)c1cccc(NC(=O)c2ccccc2Nc2cccnc2)c1` [Compound 27], for which the IC50 lay in the range of 2 to 10 µM.
With `NS(=O)(=O)c1cccc(NC(=O)c2ccc(SC(F)(F)F)cc2)c1` [Compound 60], the IC50 is more than 10 µM.
As to `COc1ccccc1Oc1ccccc1C(=O)Nc1cccc(S(N)(=O)=O)c1` [Compound 23], the IC50 is less than 2 µM.
For `CC(C)(C)c1ccc(C(=O)Nc2cccc(S(N)(=O)=O)c2)c([S+]([O-])c2ccccc2)c1` (stereo not shown) [Compound 110, 4-tert-Butyl-2-(phenylsulfinyl)-N-(3-sulfamoylphenyl)benzamide], the IC50 was in the range of 2 to 10 µM.
With `CC(C)(C)c1ccc(C(=O)Nc2cccc(S(N)(=O)=O)c2)c(Oc2ccccc2N2CCOCC2)c1` [Compound 98], the IC50 is less than 2 µM.
For `COc1cccc(Oc2cc(C(C)(C)C)ccc2C(=O)Nc2cccc(S(N)(=O)=O)c2)c1` [Compound 139], the IC50 was 2 to 10 µM.
For `NS(=O)(=O)c1cccc(NC(=O)c2ccccc2Oc2ccccc2Cl)c1` [Compound 21] the value was less than 2 µM; for `Cc1ccc(Oc2cc(C(C)(C)C)ccc2C(=O)Nc2cccc(S(N)(=O)=O)c2)c(C)c1` [Compound 109], less than 2 µM; for `NS(=O)(=O)c1cccc(NC(=O)c2ccccc2Nc2cccc(F)c2)c1` [Compound 6], more than 10 µM.
Regarding `NS(=O)(=O)c1cccc(NC(=O)c2ccc(Cl)cc2)c1` [Compound 31], the IC50 was more than 10 µM.
For `NS(=O)(=O)c1cccc(NC(=O)c2ccccc2OC(F)(F)F)c1` [Compound 30], the IC50 is more than 10 µM.
Turning to `CC(C)(C)c1ccc(C(=O)Nc2cccc(S(N)(=O)=O)c2)c(S(=O)(=O)c2ccccc2)c1` [Compound 112, 4-tert-Butyl-2-(phenylsulfonyl)-N-(3-sulfamoylphenyl)benzamide], the IC50 fell in the range of 2 to 10 µM.
With `Cc1ccccc1Oc1ccccc1C(=O)Nc1cccc(S(N)(=O)=O)c1` [Compound 91], the IC50 was less than 2 µM.
With `CCCc1ccc(C(=O)Nc2cccc(S(N)(=O)=O)c2)cc1` [Compound 66], the IC50 was more than 10 µM.
For `CC(C)(C)c1ccc(C(=O)Nc2cccc(S(N)(=O)=O)c2)c(Oc2ccccc2Cl)c1` [Compound 48] the value was less than 2 µM; for `NS(=O)(=O)c1cccc(NC(=O)c2ccccc2-c2ccccc2)c1` [Compound 94], more than 10 µM; for `NS(=O)(=O)c1cccc(NC(=O)c2cccc(-n3cccn3)c2)c1` [Compound 73], more than 10 µM.
For `NS(=O)(=O)c1cccc(NC(=O)c2ccc(Br)cc2)c1` [Compound 13] the value was more than 10 µM; for `NS(=O)(=O)c1cccc(NC(=O)c2ccccc2Oc2cccc(N3CCOCC3)c2)c1` [Compound 89], more than 10 µM.

One may read the IC50 as the concentration that gives 50% inhibition.

Values taken from patent US8841483B2, “Compositions useful as inhibitors of voltage-gated sodium channels” (Vertex Pharmaceuticals Incorporated, priority 2006, dated 2014).
